{
  "source": "patent US20070072815A1",
  "about": "“Methods and kits to increase the efficiency of oligonucleotide-directed nucleic acid sequence alteration” (priority 2004, published 2007)",
  "type_in_all_cases": "cell-based",
  "key": {"[1]": {"system": "mutant eGFP gene in DLD-1-1 cells", "assay": "eGFP gene correction (oligonucleotide-directed sequence alteration) in DLD-1-1 cells, FACS readout"}, "DLD-1-1 cells": {"system": "DLD-1-1 cells", "assay": "BrdU incorporation (actively replicating forks)", "conditions": "24 hours, 1 mM HU or 3 μM VP16", "description": "For cell cycle analysis, 1×10^6 cells are plated 24 hrs before the treatment with drugs and after 24 hrs of treatment, cells are trypsinized, resuspended in 300 μl cold PBS and fixed by adding 700 μl cold ethanol. Cells are then resuspended in 1 ml of PBS containing 500 µg/ml RNaseA and […] propidium iodide and analyzed for DNA content.\nThe resulting cells are then either analyzed by FACS, or the percentage of cells in S phase is determined by BrdU incorporation. FIG. 8 presents the results of both sets of experiments.\nAs stated above, the lack of stimulation observed in cells treated with AraC could be explained by the reduced number of cells passing through S phase or the absence of actively replicating forks. If true, we might predict that a rise in the gene repair frequency would appear if the cells are released from the AraC block and replication forks are allowed to restart prior to the electroporation of the oligonucleotide. We test this prediction by treating the cells with AraC for 24 hrs and then releasing them by washing out the drug at specific times. We measure the level of BrdU incorporation at the time of electroporation and evaluate the frequency of correction 48 hrs later."}, "[2]": {"system": "HYGeGFP fusion gene target in Saccharomyces cerevisiae strain LSY678", "assay": "Hygromycin resistance gene correction in yeast LSY678", "conditions": "synchronized with alpha factor and released into HU, specific time after release from G1/S border", "text": "An alternative model system to measure oligonucleotide-directed sequence alteration has been developed in the yeast Saccharomyces cerevisiae strain LSY678 (MATa leu 2-3, 112 trpl-1 ura 3-1 his 3-1, 15 ade2-1 can 1-100). The strain has integrated an HYGeGFP fusion gene target containing a single point mutation at base pair 137 in the coding region of the hygromycin gene, rendering it unable to confer resistance to the antibiotic. Oligonucleotide-directed sequence alteration can repair the mutation and restore hygromycin resistance. For example, in one experiment, LSY678 cells are synchronized with alpha factor and released, or synchronized with alpha factor and released into hydroxyurea (HU), prior to electroporation with a correcting oligonucleotide. The combination of alpha factor and HU increased correction efficiency 25-fold as compared to cells treated with neither agent, but only when oligonucleotide treatment is performed at a specific period of time after release from the G1/S border. See also U.S. patent application publication no. 20030207451."}},
  "note": "Where “and” joins values, the source holds several entries; their conditions need not be identical. Identical values can stand only once.",
  "data": [
    {"smiles": "NC(=O)NO", "note": "[HU, hydroxyurea]", "values": [
      {"measurement": "correction efficiency (frequency of gene repair)", "setting": "[1]; 1 mM HU 24 hours before electroporation, asynchronous cells", "result": "2.2% and ~3%"},
      {"measurement": "correction efficiency in synchronized cells relative to asynchronous cells", "setting": "[1]; 1 mM HU or 10 mM thymidine, DTB synchronized vs asynchronous", "result": "more than three times"},
      {"measurement": "effect of dose on correction efficiency", "setting": "[1]; HU 0.3-5 mM or VP16 0.5-10 μM for 24 hours prior to electroporation", "result": "increase correction efficiency in a dose-dependent manner"},
      {"measurement": "percentage of cells in S phase by BrdU", "setting": "DLD-1-1 cells", "result": 77, "unit": "%"},
      {"measurement": "increase of correction efficiency compared to cells treated with neither agent", "setting": "[2]", "result": 25, "unit": "fold"}
    ]}
  ]
}
